According to patent US10005767B2, “Compositions and methods for inhibition of the JAK pathway” (Rigel Pharmaceuticals, Inc., priority 2009, dated 2018):
Structures can show the parent of a compound that is named as a salt.

These compounds were tested on human primary T-cells, IL-2 stimulated proliferation (JAK-1 and JAK-3 dependent; reported as JAK3 activity) (assay: Human primary T-cell proliferation stimulated by IL-2 (Example 3)). Details: Homo sapiens, T-cell, tested under conditions described in Example 3 (IL-2 stimulated human primary T-cell proliferation); read-out: ability to inhibit JAK3 activity, IC50 range (Table V).
Assay type: cell-based
Outline: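 Peripheral-blood human T-cells pre-activated via TCR/CD28, IL-2-starved overnight, then cultured 72 h at 37 °C with compound in Yssel's medium containing IL-2 (80 U/mL in cell suspension). Proliferation read as viable-cell ATP by CellTiter-Glo luminescence; reduction versus control taken as JAK pathway inhibition.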

How did the IC50 turn out when `Cc1cc(CF)cc(Nc2ncc(C)c(Nc3ccc4oc(=O)[nH]c4c3)n2)c1` [Compound I-238, 5-(2-(3-(fluoromethyl)-5-methylphenylamino)-5-methylpyrimidin-4-ylamino)benzo[d]oxazol-2(3H)-one] was run?
Its IC50 is under 0.5 µM.

With `CCc1cccc(Nc2ncc(C)c(Nc3ccc4oc(=O)[nH]c4c3)n2)c1` [Compound I-503, 5-(2-(3-ethylphenylamino)-5-methylpyrimidin-4-ylamino)benzo[d]oxazol-2(3H)-one] as the compound, how does the IC50 read?
Its IC50 is under 0.5 µM.

For `COc1cc(C)cc(Nc2ncc(C)c(Nc3cc(C)c4oc(=O)[nH]c4c3)n2)c1` [Compound I-428, 5-(2-(3-methoxy-5-methylphenylamino)-5-methylpyrimidin-4-ylamino)-7-methylbenzo[d]oxazol-2(3H)-one], which IC50 is on record?
The IC50 was under 0.5 µM.

For `Cc1cnc(Nc2ccc(C(=O)NC3CC3)cc2)nc1Nc1ccc2oc(=O)[nH]c2c1` [Compound I-134, N-Cyclopropyl-4-[5-methyl-4-(2-oxo-2,3-dihydro-benzooxazol-5-ylamino)-pyrimidin-2-ylamino]-benzamide formate salt], which IC50 is on record?
The IC50 was under 0.5 µM.

Which IC50 does the source give for `Cc1cnc(Nc2ccc3c(c2)CCC(=O)N3)nc1Nc1ccc2oc(=O)[nH]c2c1` [IV-33, 5-(5-methyl-2-(2-oxo-1,2,3,4-tetrahydroquinolin-6-ylamino)pyrimidin-4-ylamino)benzo[d]oxazol-2(3H)-one] here?
The IC50 was under 0.5 µM.

Which IC50 does the source give for `Cc1cnc(Nc2ccc(NC3CCN(C)CC3)nc2)nc1Nc1ccc2oc(=O)[nH]c2c1` [II-35, N4-(benzo[d]oxazol-2(3H)-on-5-yl)-N2-[2-(1-methylpiperidin-4-yl)aminopyridin-5-yl]-5-methylpyrimidine-2,4-diamine] here?
Its IC50 is under 0.5 µM.

`COc1cc(Nc2ncc(C)c(Nc3ccc4oc(=O)[nH]c4c3)n2)ccc1F` [Compound I-183, 5-[2-(4-Fluoro-3-methoxy-phenylamino)-5-methyl-pyrimidin-4-ylamino]-3H-benzooxazol-2-one] was tested. Which IC50 did it give?
Its IC50 is under 0.5 µM.

`Cc1cnc(Nc2ccc3c(c2)C(=O)N(C)CCCC3)nc1Nc1ccc2oc(=O)[nH]c2c1` [IV-14, 2-Methyl-9-[5-methyl-4-(2-oxo-2,3-dihydro-benzooxazol-5-ylamino)-pyrimidin-2-ylamino]-3,4,5,6-tetrahydro-2H-benzo[c]azocin-1-one] was tested. Which IC50 did it give?
Its IC50 is under 0.5 µM.

How did the IC50 turn out when `Cc1cnc(Nc2ccc(OC(C)C)nc2)nc1Nc1ccc2oc(=O)[nH]c2c1` [II-144, N2-(2-isopropoxypyridin-5-yl)-5-methyl-N4-(2-oxo-2,3-dihydro-1,3-benzoxazol-5-yl)-2,4-pyrimidinediamine] was run?
Its IC50 is under 0.5 µM.

Which IC50 does the source give for `COc1ccc(Nc2ncc(C)c(Nc3ccc4oc(=O)[nH]c4c3)n2)cc1OC(F)F` [Compound I-116, N2-(3-(difluoromethoxy)-4-methoxyphenyl)-N4-(benzo[d]oxazol-2(3H)-on-5-yl)-5-methylpyrimidine-2,4-diamine] here?
The IC50 was under 0.5 µM.

Which IC50 does the source give for `Cc1cnc(Nc2cccc(C)c2F)nc1Nc1ccc2oc(=O)[nH]c2c1` [Compound I-513, 5-(2-(2-fluoro-3-methylphenylamino)-5-methylpyrimidin-4-ylamino)benzo[d]oxazol-2(3H)-one] here?
The IC50 was under 0.5 µM.

How did the IC50 turn out when `Cc1cnc(Nc2cccnc2)nc1Nc1ccc2oc(=O)[nH]c2c1` [II-42, 5-[5-Methyl-2-(pyridin-3-ylamino)-pyrimidin-4-ylamino]-3H-benzooxazol-2-one] was run?
Its IC50 is 0.5 to 5 µM.

With `Cc1cnc(Nc2ccccc2)nc1Nc1ccc2oc(=O)[nH]c2c1` [Compound I-174, 5-(5-Methyl-2-phenylamino-pyrimidin-4-ylamino)-3H-benzooxazol-2-one] as the compound, how does the IC50 read?
The IC50 was under 0.5 µM.

How did the IC50 turn out when `Cc1cnc(Nc2ccc(N[C@@H]3CCCNC3)nc2)nc1Nc1ccc2oc(=O)[nH]c2c1` [II-107, (R)-5-(5-methyl-2-(6-(piperidin-3-ylamino)pyridin-3-ylamino)pyrimidin-4-ylamino)benzo[d]oxazol-2(3H)-one] was run?
The IC50 was under 0.5 µM.

For `Cc1cnc(Nc2ccc(N3CCN(C)CC3)nc2)nc1Nc1cc(C)c2oc(=O)[nH]c2c1` [II-72, 7-methyl-5-(5-methyl-2-(6-(4-methylpiperazin-1-yl)pyridin-3-ylamino)pyrimidin-4-ylamino)benzo[d]oxazol-2(3H)-one], which IC50 is on record?
The IC50 was under 0.5 µM.

With `Cc1cnc(Nc2ccc(C(C)NCc3ccccc3)cc2)nc1Nc1ccc2oc(=O)[nH]c2c1` (centres unmarked) [Compound I-206, 5-(2-(4-(1-(benzylamino)ethyl)phenylamino)-5-methylpyrimidin-4-ylamino)benzo[d]oxazol-2(3H)-one] as the compound, how does the IC50 read?
Its IC50 is under 0.5 µM.

Which IC50 does the source give for `CNC(C)c1cc(Nc2ncc(C)c(Nc3ccc4oc(=O)[nH]c4c3)n2)cc(C(F)(F)F)c1` (centres unmarked) [Compound I-457, 5-(5-methyl-2-(3-(1-(methylamino)ethyl)-5-(trifluoromethyl)phenylamino)pyrimidin-4-ylamino)benzo[d]oxazol-2(3H)-one] here?
The IC50 was under 0.5 µM.

With `Cc1cnc(Nc2cc(C)c(F)c(C)c2)nc1Nc1cc(F)c2oc(=O)[nH]c2c1` [Compound I-490, 7-fluoro-5-(2-(4-fluoro-3,5-dimethylphenylamino)-5-methylpyrimidin-4-ylamino)benzo[d]oxazol-2(3H)-one] as the compound, how does the IC50 read?
The IC50 was under 0.5 µM.

How did the IC50 turn out when `CS(=O)(=O)Nc1ccc(Nc2ncc(F)c(Nc3ccc4[nH]c(=O)[nH]c4c3)n2)cc1` [Compound I-51, N2-(4-(methylsulfonylamino)phenyl)-N4-(1H-benzo[d]imidazol-2(3H)-on-5-yl)-5-fluoropyrimidine-2,4-diamine] was run?
The IC50 was 0.5 to 5 µM.

For `CNC(C)c1cc(Nc2ncc(C)c(Nc3ccc4oc(=O)[nH]c4c3)n2)cc(OC)c1` (centres unmarked) [Compound I-236, 5-(2-(3-methoxy-5-(1-(methylamino)ethyl)phenylamino)-5-methylpyrimidin-4-ylamino)benzo[d]oxazol-2(3H)-one], which IC50 is on record?
The IC50 was under 0.5 µM.

Same assay, conditions: tested under conditions described in Example 3 (IL-2 stimulated human primary T-cell proliferation); read-out: ability to inhibit JAK3 activity, IC50 range (Table V)

For `Cc1cnc(Nc2ccc(N(C)S(C)(=O)=O)cc2)nc1Nc1ccc2oc(=O)n(C)c2c1` [Compound I-94, N2-((4-methylsulfonyl-N-methylamino)phenyl)-N4-(3-methyl-2-oxo-2,3-dihydrobenzo[d]oxazol-5-yl)-5-methylpyrimidine-2,4-diamine], which IC50 is on record?
The IC50 was under 0.5 µM.

Which IC50 does the source give for `Cc1cnc(Nc2cccc(S(C)(=O)=O)c2)nc1Nc1ccc2[nH]c(=O)oc2c1` [Compound I-100, N2-((3-methylsulfonyl)phenyl)-N4-(2-oxo-2,3-dihydrobenzo[d]oxazol-6-yl)-5-methylpyrimidine-2,4-diamine] here?
Its IC50 is under 0.5 µM.

For `Cc1cnc(Nc2ccc(OC(C)(C)C(N)=O)nc2)nc1Nc1ccc2oc(=O)[nH]c2c1` [II-146, N2-[2-(1-aminocarbonyl-1-methyl)ethoxypyridin-5-yl]-5-methyl-N4-(2-oxo-2,3-dihydro-1,3-benzoxazol-5-yl)-2,4-pyrimidinediamine], which IC50 is on record?
Its IC50 is under 0.5 µM.

For `Cc1cnc(Nc2ccc(N3CCCC3)c(C#N)c2)nc1Nc1ccc2oc(=O)[nH]c2c1` [Compound I-310, N2-[3-cyano-4-(pyrrolidin-1-yl)]phenyl-5-methyl-N4-(2-oxo-2,3-dihydro-1,3-benzoxazol-5-yl)-2,4-pyrimidinediamine], which IC50 is on record?
Its IC50 is under 0.5 µM.

Which IC50 does the source give for `NS(=O)(=O)c1ccc(Nc2ncc(F)c(Nc3ccc4oc(=O)[nH]c4c3)n2)cc1` [Compound I-19] here?
Its IC50 is under 0.5 µM.

For `Cc1cnc(Nc2cc(F)c(C(F)(F)F)c(F)c2)nc1Nc1ccc2oc(=O)[nH]c2c1` [Compound I-415, N2-(3,5-difluoro-4-trifluoromethyl)phenyl-5-methyl-N4-(2-oxo-2,3-dihydro-1,3-benzoxazol-5-yl)-2,4-pyrimidinediamine], which IC50 is on record?
Its IC50 is under 0.5 µM.

With `Cc1cnc(Nc2cnc(N3CCN4CCC[C@@H]4C3)c(F)c2)nc1Nc1ccc2oc(=O)[nH]c2c1` [II-113, N4-(benzo[d]oxazolin-2(3H)-one-5-yl)-N2-{2-[(8R)-1,4-diazabicyclo[4.3.0]nonane-1-yl]-3-fluoropyridine-5-yl}-5-methyl-2,4-pyrimidinediamine] as the compound, how does the IC50 read?
Its IC50 is under 0.5 µM.

For `CN1CCN(c2ccc(Nc3ncc(F)c(Nc4ccc5c(c4)n(C)c(=O)n5C)n3)cn2)CC1` [II-21, N4-(1,3-dimethylbenzimidazolin-2-on-5-yl)-N2-[2-(4-methylpiperazino)pyridin-5-yl]-5-fluoropyrimidine-2,4-diamine], which IC50 is on record?
The IC50 was 0.5 to 5 µM.

How did the IC50 turn out when `Cn1c(=O)oc2cc(Nc3nc(Nc4ccc(S(N)(=O)=O)cc4)ncc3F)ccc21` [Compound I-58] was run?
Its IC50 is over 10 µM.

How did the IC50 turn out when `CCCn1c(=O)oc2ccc(Nc3nc(Nc4cccc(S(C)(=O)=O)c4)ncc3C)cc21` [Compound I-7, N4-(3-n-propylbenzo[d]oxazol-2(3H)-on-5-yl)-N2-((3-methylsulfonyl)phenyl)-5-methylpyrimidine-2,4-diamine] was run?
The IC50 was under 0.5 µM.

With `CNC(=O)COc1cccc(Nc2ncc(C)c(Nc3ccc4oc(=O)[nH]c4c3)n2)c1` [Compound I-306, 5-methyl-N2-(3-methylaminocarbonylmethoxy)phenyl-N4-(2-oxo-2,3-dihydro-1,3-benzoxazol-5-yl)-2,4-pyrimidinediamine] as the compound, how does the IC50 read?
The IC50 was under 0.5 µM.

Which IC50 does the source give for `COC(c1cccc(Nc2ncc(C)c(Nc3ccc4oc(=O)[nH]c4c3)n2)c1)C(F)(F)F` (centres unmarked) [Compound I-396, N2-[3-(1-methoxy-2,2,2-trifluoroethyl)]phenyl-5-methyl-N4-(2-oxo-2,3-dihydro-1,3-benzoxazol-5-yl)-2,4-pyrimidinediamine] here?
Its IC50 is under 0.5 µM.

Which IC50 does the source give for `Cc1cnc(Nc2cccc(F)c2)nc1Nc1ccc2oc(=O)[nH]c2c1` [Compound I-368, N2-(3-fluoro)phenyl-5-methyl-N4-(2-oxo-2,3-dihydro-1,3-benzoxazol-5-yl)-2,4-pyrimidinediamine] here?
The IC50 was under 0.5 µM.

With `Cc1cnc(Nc2cccc(S(N)(=O)=O)c2)nc1Nc1ccc2oc(=O)n(C)c2c1` [Compound I-67, N2-((3-aminosulfonyl)phenyl)-N4-(3-methyl-2-oxo-2,3-dihydrobenzo[d]oxazol-5-yl)-5-methylpyrimidine-2,4-diamine] as the compound, how does the IC50 read?
The IC50 was under 0.5 µM.

With `Cc1cnc(Nc2cccc(OCC(=O)NC3CC3)c2)nc1Nc1ccc2oc(=O)[nH]c2c1` [Compound I-315, N2-[3-(cyclopropylaminocarbonylmethoxy)]phenyl-5-methyl-N4-(2-oxo-2,3-dihydro-1,3-benzoxazol-5-yl)-2,4-pyrimidinediamine] as the compound, how does the IC50 read?
The IC50 was under 0.5 µM.
